According to US7928114B2, “Crystalline erlotinib” (Synthon BV, priority 2006, dated 2011):
“Also recorded” adds a separate entry of the source. Structures can show the parent of a compound that is named as a salt.

Experiments:
[1] = WO 2004/072049 (Form E vs Form B), WO 99/55683 (mesylate vs hydrochloride); cited from earlier work
[2] = WO 01/34574, WO 2004/072049; cited from earlier work
[3] = XRPD under non-ambient conditions (humidity / elevated temperature); assay type: physicochemical; conditions: 30° C./10-90% RH and 50° C./75% RH
TGA hygroscopicity = assay type: physicochemical
From the text: TGA confirmed that Form II can be considered non-hygroscopic.

[4] = Relative thermodynamic stability of erlotinib free base crystal forms (prolonged stirring in 2-propanol; transitions on heating); assay type: physicochemical; conditions: recrystallization from 2-propanol with prolonged stirring; Forms I and III convert to Form II on heating
From the text: Recrystallization from 2-propanol may initially give Form II with a small amount of another Form. However, prolonged stirring results in pure Form II.
The hydrates of the invention can be converted into anhydrous forms and vice versa. For instance, any of the hydrates provides for the erlotinib free base Form II by heating.
The transition of hydrate Form I into Form II proceeds via melting of Form I after which the melt recrystallizes to Form II. The transition of Form III into Form II occurs via the solid-solid transformation.

C#Cc1cccc(Nc2ncnc3cc(OCCOC)c(OCCOC)cc23)c1 [Form E, erlotinib hydrochloride]
solubility relative to comparator form/salt [1]: higher solubility

C#Cc1cccc(Nc2ncnc3cc(OCCOC)c(OCCOC)cc23)c1 [Form B, erlotinib hydrochloride]
stability relative to other erlotinib hydrochloride polymorphs [2]: thermodynamically more stable than Form A

C#Cc1cccc(Nc2ncnc3cc(OCCOC)c(OCCOC)cc23)c1 [Form II, [6,7-bis(2-methoxyethoxy)-quinazolin-4-yl]-(3-ethynylphenyl)amine]
polymorphic transitions under humid conditions at elevated temperatures [3]: does not undergo polymorphic transitions
hygroscopicity (TGA hygroscopicity): non-hygroscopic
thermodynamic stability relative to other free base forms [4]: thermodynamically more stable Form; also recorded: thermodynamically most stable form

erlotinib mesylate [mesylate salt of erlotinib]
solubility relative to comparator form/salt [1]: enhanced solubility compared to the hydrochloride
